Patent US20230181905A1, “Systems, Devices, and Methods for Enhancing the Neuroprotective Effects of Non-Invasive Gamma Stimulation with Pharmacological Agents” (Massachusetts Institute of Technology, priority 2021, published 2023)

System: IBA1+ microglia
Assay: IBA1+ microglia density, area and volume by immunohistochemistry
Type: in vivo, mouse
Experimental: Experiments were performed to reduce microglia from 10-month-old 5×FAD mice, transgenic mice that overexpress human APP and PSEN1 genes harboring 5 AD-associated mutations, prior to GENUS treatment. […] Following 20 days of administration of Plx3397 chow, untreated- and Plx3397-treated 5×FAD mice (which continued Plx3397 administration) were subjected to 30 days of daily GENUS (FIG. 1A). Following completion of these treatments, microglial density in the visual cortex was compared between 1) untreated (No Stim), 2) Plx3397 treated, 3) GENUS treated and 4) Plx3397+GENUS treated 5×FAD mice (FIG. 1B).
Whether the neuroprotective effect is broader and can be replicated in other mouse models of neurodegeneration was evaluated. The CK-p25 mice, transgenic mice that overexpress CDK5 activator p25 in excitatory neurons, were subjected to these treatments. CK-p25 mice, which was raised in doxycycline containing food, was given either normal rodent chow (containing no doxycycline) or Plx3397 chow, and the mice simultaneously underwent no sensory stimulation or GENUS (FIG. 7A). After 42 days of treatment, neuroprotective factors were evaluated. Plx3397, GENUS and Plx3397+GENUS treatments reduced microglia in the visual cortex in CK-p25 mice (ANOVA F (3,35)=40.93, P<0.0001) (FIGS. 7B-7D), consistent with the results observed in 5×FAD mice and recent findings.
Microglia: Iba1 immunoreactive cells were considered microglia. Using an LSM 710 or LSM 880 with a 10× (for Iba1+ cell counts) or 40× (for morphological analysis) objective z stacks of the entire slice thickness […] with […] step size were acquired. Imaris was used for 3D rendering of images to quantify the total volume of microglia.
To study how CSF1R-sensitive microglia impact neural activity in the context of AD, an amyloidosis mouse model, the 5×FAD mice—which is a most commonly used mouse model for AD, was subject to a diet containing CSF1R inhibitor Plx3397 for 50 days (FIG. 21A). The CSF1R inhibitor Plx3397 (600 ppm) was employed, which was previously shown to effectively reduce microglia in vivo. Control mice were age-matched 5×FAD litters that received a regular diet. Electrophysiological recordings were performed using linear probes. Post-recording, the recording site in the visual cortex was verified by histology (FIG. 21), and microglia reduction was evaluated by assessing IBA1+ cell numbers.
How does regulating gamma oscillations affect synaptic and neural circuit function in Plx3397 treated 5×FAD mice? Specifically, it was asked what gene expression patterns are after the Plx3397 treatment and how gamma entrainment impacts such a signature. To address these questions, an unbiased RNA sequencing approach was utilized. 5×FAD mice were treated, via oral delivery in mouse chow, with the Plx3397. Following 20 days of administration of Plx3397 chow, untreated- and Plx3397-treated 5×FAD mice (which continued Plx3397 administration) were subjected to 30 days of daily GENUS (FIG. 24A). Following completion of the treatments, microglial density was quantified between 1) untreated (control), 2) Plx3397, 3) GENUS and 4) Plx3397+GENUS treated 5×FAD mice (FIGS. 24A-24D). […] Also observed was a reduction in IBA1 signal in the GENUS group (84.0±6.42 & 9.17±0.85) (FIGS. 24C-24D), which is consistent with previous observation in CK-p25 mice. After the treatments, the visual cortex was dissected, and single nucleus RNA-sequencing was performed.
Microglia: Iba1 immunoreactive cells were considered microglia. Using an LSM 710 or LSM 880 with a 10× (for Iba1+ cell counts) or 40× (for morphological analysis) objective z stacks of the entire slice thickness […] with […] step size were acquired. Imaris was used for 3D rendering of images to quantify the total volume of microglia. MAC2+ cells were counted manually using Image J.

[1] = 5×FAD mice, visual cortex, Plx3397 chow 50 days, GENUS last 30 days

## FC(F)(F)c1ccc(CNc2ccc(Cc3c[nH]c4ncc(Cl)cc34)cn2)cn1 [Plx3397, Pexidartinib]
5×FAD mice, CA1 region of the hippocampus
  IBA1+ positive microglia: significant reduction
5×FAD mice, hippocampus, chronic Plx3397 vs control
  IBA1+ cells: reduced
5×FAD mice, visual cortex, Plx3397 chow 600 ppm 20 days, then 30 days continued with or without daily GENUS, vs untreated
  IBA1+ positive microglia: significant reduction
[1]
  % area covered by IBA1: 7.27±0.45%
  IBA1+ microglia number: 47.18±5.44 % no treatment control
5×FAD mice, visual cortex, Plx3397 diet 600 ppm for 50 days
  IBA1+ cells: 12±1.91 cells
CK-p25 mice, visual cortex, 42 days
  volume of microglia: lower volume
CK-p25 mice, visual cortex, 42 days of treatment
  microglia: reduced
CK-p25 mice, visual cortex, chronic treatment 6 weeks
  IBA1+ microglial cells: 44.19±2.86 % no treatment control
